Entries after “also recorded” stand apart in the source; their conditions may differ. Read-outs that look alike come from different tables or passages of the source.
Assays:
cIAP-1 [1] = target: T1, cIAP-1 (Homo sapiens, UniProt Q13490); assay: cIAP1 degradation in PBMCs, Western blot; assay type: in vivo
T1 construct: endogenous in cells; host or cells: peripheral blood mononuclear cells (PBMCs) of patients
Description: Pharmacokinetic samples were taken from all patients on day 1 (predose, 0.5, 1, 2, 3, 4, 6, 8, 12, 18 h postdose) and on day 5 (predose, 0.5, 1, 2, 3, 4, 6, 8 h postdose) of the first cycle. In addition, for exploratory PD analysis of IAP inhibition and activation of apoptosis, optional skin and tumor biopsies were taken from consenting patients on days 1 (predose) and 5 and blood samples on day 1 (predose, 1, 3, 6, 8, 12 h postdose), day 2 (predose), and day 5 (3 h postdose).
(§1) cIAP-1 levels were measured in tumor tissue and surrogate tissue as available. Peripheral blood mononuclear cells (PBMCs) were analyzed for DEBIO1143-induced cIAP-1 degradation. Plasma native cytokeratin-18 (M65) or caspase-3 generated cytokeratin-18 fragments (M30), interleukin 8 (IL8), chemokine ligand 2 (CCL2, MCP1), and tumor necrosis factor α (TNFα) were measured by ELISA as markers of epithelial cell death and inflammation on days 1 (predose, 1, 3, 6, and 12 h postdose), 2, and 5.
For the detection of cIAP-1 in paraffin-embedded human tissue, a validated immunohistochemical (IHC) assay was used. DEBIO1143-induced cIAP-1 degradation was measured in PBMCs using Western blot. Plasma biomarkers were measured through commercial ELISAs. All laboratory analyses were performed by MPI Research, Inc. (PK) and Mosaic Laboratory, LLC (PD).

cIAP-1 [2] = tested on: cIAP-1; parameters: method as in PMID 21443232; settings: cited from earlier work
[3] = tested on: advanced solid tumors and lymphomas; assay: Antitumor activity (RECIST 1.1 / lymphoma criteria); assay type: in vivo, human
Description: Tumor evaluations were scheduled before therapy and after every other cycle of therapy. Changes were determined by physical examination, tumor markers, or standard imaging techniques. […] Read-outs were complete response (CR), partial response (PR), stable disease (SD), and disease progression (DP).

[4] = parameters: method as in PMID 23813446; settings: rats; cited from earlier work
[5] = parameters: method as in PMID 23813446; settings: mice; cited from earlier work
[6] = tested on: tumor necrosis factor α (TNFα); assay: Plasma TNFα ELISA; parameters: species or system human; settings: in vivo
Description: as §1, with “([…])” for “(M65)”, “5. […] For the detection of cIAP-1 in paraffin-embedded human tissue, a validated immunohistochemical (IHC) assay was used. DEBIO1143-induced cIAP-1 degradation was measured in PBMCs using Western blot. Plasma biomarkers were measured through commercial ELISAs. All laboratory analyses were performed by MPI Research, Inc. (PK) and Mosaic Laboratory, LLC (PD).” for “5.”

[7] = tested on: various human cancer cell lines; parameters: method as in PMID 21264751, PMID 22669575; settings: in vitro; cited from earlier work
[8] = parameters: method as in PMID 23813446; settings: non-human primates; cited from earlier work
[9] = tested on: caspase-3 generated cytokeratin-18 fragments (M30); assay: Plasma M30 ELISA; assay type: in vivo, human; settings: day 5, p < 0.0033
Description: as §1, with “([…])” for “(M65)”, “5. […] For the detection of cIAP-1 in paraffin-embedded human tissue, a validated immunohistochemical (IHC) assay was used. DEBIO1143-induced cIAP-1 degradation was measured in PBMCs using Western blot. Plasma biomarkers were measured through commercial ELISAs. All laboratory analyses were performed by MPI Research, Inc. (PK) and Mosaic Laboratory, LLC (PD).” for “5.”

[10] = dogs; cited from earlier work
[11] = tested on: multiple mouse cancer models; settings: cited from earlier work

T1 sequence (Q13490 whole entry): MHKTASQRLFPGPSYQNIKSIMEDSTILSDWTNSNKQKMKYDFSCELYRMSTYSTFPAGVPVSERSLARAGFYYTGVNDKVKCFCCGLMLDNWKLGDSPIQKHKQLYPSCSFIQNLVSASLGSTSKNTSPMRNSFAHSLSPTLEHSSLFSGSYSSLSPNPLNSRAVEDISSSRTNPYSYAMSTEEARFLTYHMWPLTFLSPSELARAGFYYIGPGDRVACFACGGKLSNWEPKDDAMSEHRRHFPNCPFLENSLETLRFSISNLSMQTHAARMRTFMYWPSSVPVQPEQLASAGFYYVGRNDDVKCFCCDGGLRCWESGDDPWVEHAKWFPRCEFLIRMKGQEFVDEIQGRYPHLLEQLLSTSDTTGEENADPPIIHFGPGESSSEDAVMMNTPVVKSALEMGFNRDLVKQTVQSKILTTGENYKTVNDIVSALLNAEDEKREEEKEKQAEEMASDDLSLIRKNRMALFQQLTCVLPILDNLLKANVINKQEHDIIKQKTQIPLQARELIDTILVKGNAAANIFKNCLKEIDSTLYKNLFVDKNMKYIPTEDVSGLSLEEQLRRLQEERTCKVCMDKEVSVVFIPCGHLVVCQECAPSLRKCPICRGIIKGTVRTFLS

## CN[C@@H](C)C(=O)N[C@H]1CN(C(=O)CC(C)C)CC[C@H]2CC[C@@H](C(=O)NC(c3ccccc3)c3ccccc3)N2C1=O [DEBIO1143]
cIAP-1 [1]; 120 mg, 1h, N=1
  cIAP1/Actin in PBMC, mean (SD): 2% (0) % from baseline
  cIAP1/Actin in PBMC, median (range): 2 (2-2) % from baseline
cIAP-1 [1]; 120 mg, 3h, N=1
  cIAP1/Actin in PBMC, mean (SD): 2% (0) % from baseline
  cIAP1/Actin in PBMC, median (range): 2 (2-2) % from baseline
cIAP-1 [1]; 120 mg, 6h, N=1
  cIAP1/Actin in PBMC, mean (SD): 4% (0) % from baseline
  cIAP1/Actin in PBMC, median (range): 4 (4-4) % from baseline
cIAP-1 [1]; 120 mg, 12h, N=1
  cIAP1/Actin in PBMC, mean (SD): 3% (0) % from baseline
  cIAP1/Actin in PBMC, median (range): 3 (3-3) % from baseline
cIAP-1 [1]; 120 mg, 24h, N=1
  cIAP1/Actin in PBMC, mean (SD): 4% (0) % from baseline
  cIAP1/Actin in PBMC, median (range): 4 (4-4) % from baseline
cIAP-1 [1]; 120 mg, 99h, N=1
  cIAP1/Actin in PBMC, mean (SD): 5% (0) % from baseline
  cIAP1/Actin in PBMC, median (range): 5 (5-5) % from baseline
cIAP-1 [1]; 180 mg, 1h, N=6
  cIAP1/Actin in PBMC, mean (SD): 34% (31) % from baseline
  cIAP1/Actin in PBMC, median (range): 33 (0-78) % from baseline
cIAP-1 [1]; 180 mg, 3h, N=6
  cIAP1/Actin in PBMC, mean (SD): 20% (25) % from baseline
  cIAP1/Actin in PBMC, median (range): 12 (3-68) % from baseline
cIAP-1 [1]; 180 mg, 6h, N=7
  cIAP1/Actin in PBMC, mean (SD): 6% (8) % from baseline
  cIAP1/Actin in PBMC, median (range): 5 (0-24) % from baseline
cIAP-1 [1]; 180 mg, 12h, N=3
  cIAP1/Actin in PBMC, mean (SD): 8% (7) % from baseline
  cIAP1/Actin in PBMC, median (range): 5 (4-16) % from baseline
cIAP-1 [1]; 180 mg, 24h, N=6
  cIAP1/Actin in PBMC, mean (SD): 9% (10) % from baseline
  cIAP1/Actin in PBMC, median (range): 5 (3-29) % from baseline
cIAP-1 [1]; 180 mg, 99h, N=6
  cIAP1/Actin in PBMC, mean (SD): 2% (2) % from baseline
  cIAP1/Actin in PBMC, median (range): 0 (0-5) % from baseline
cIAP-1 [1]; 260 mg, 1h, N=3
  cIAP1/Actin in PBMC, mean (SD): 39% (33) % from baseline
  cIAP1/Actin in PBMC, median (range): 44 (4-70) % from baseline
cIAP-1 [1]; 260 mg, 3h, N=3
  cIAP1/Actin in PBMC, mean (SD): 45% (50) % from baseline
  cIAP1/Actin in PBMC, median (range): 24 (9-103) % from baseline
cIAP-1 [1]; 260 mg, 6h, N=3
  cIAP1/Actin in PBMC, mean (SD): 9% (4) % from baseline
  cIAP1/Actin in PBMC, median (range): 8 (5-13) % from baseline
cIAP-1 [1]; 260 mg, 12h, N=2
  cIAP1/Actin in PBMC, mean (SD): 14% (5) % from baseline
  cIAP1/Actin in PBMC, median (range): 14 (10-17) % from baseline
cIAP-1 [1]; 260 mg, 24h, N=3
  cIAP1/Actin in PBMC, mean (SD): 9% (7) % from baseline
  cIAP1/Actin in PBMC, median (range): 6 (5-16) % from baseline
cIAP-1 [1]; 260 mg, 99h, N=3
  cIAP1/Actin in PBMC, mean (SD): 6% (3) % from baseline
  cIAP1/Actin in PBMC, median (range): 6 (3-8) % from baseline
cIAP-1 [1]; 400 mg, 1h, N=1
  cIAP1/Actin in PBMC, mean (SD): 14% (0) % from baseline
  cIAP1/Actin in PBMC, median (range): 14 (14-14) % from baseline
cIAP-1 [1]; 400 mg, 3h, N=2
  cIAP1/Actin in PBMC, mean (SD): 4% (2) % from baseline
  cIAP1/Actin in PBMC, median (range): 4 (3-6) % from baseline
cIAP-1 [1]; 400 mg, 6h, N=2
  cIAP1/Actin in PBMC, mean (SD): 6% (4) % from baseline
  cIAP1/Actin in PBMC, median (range): 6 (2-9) % from baseline
cIAP-1 [1]; 400 mg, 24h, N=2
  cIAP1/Actin in PBMC, mean (SD): 19% (26) % from baseline
  cIAP1/Actin in PBMC, median (range): 19 (0-37) % from baseline
cIAP-1 [1]; 400 mg, 99h, N=2
  cIAP1/Actin in PBMC, mean (SD): 28% (31) % from baseline
  cIAP1/Actin in PBMC, median (range): 28 (6-51) % from baseline
cIAP-1 [1]; 600 mg, 1h, N=3
  cIAP1/Actin in PBMC, mean (SD): 27% (9) % from baseline
  cIAP1/Actin in PBMC, median (range): 25 (20-38) % from baseline
cIAP-1 [1]; 600 mg, 3h, N=3
  cIAP1/Actin in PBMC, mean (SD): 24% (11) % from baseline
  cIAP1/Actin in PBMC, median (range): 18 (17-36) % from baseline
cIAP-1 [1]; 600 mg, 6h, N=3
  cIAP1/Actin in PBMC, mean (SD): 20% (11) % from baseline
  cIAP1/Actin in PBMC, median (range): 17 (11-33) % from baseline
cIAP-1 [1]; 600 mg, 12h, N=1
  cIAP1/Actin in PBMC, mean (SD): 36% (0) % from baseline
  cIAP1/Actin in PBMC, median (range): 36 (36-36) % from baseline
cIAP-1 [1]; 600 mg, 24h, N=3
  cIAP1/Actin in PBMC, mean (SD): 29% (36) % from baseline
  cIAP1/Actin in PBMC, median (range): 14 (3-70) % from baseline
cIAP-1 [1]; 600 mg, 99h, N=2
  cIAP1/Actin in PBMC, mean (SD): 14% (19) % from baseline
  cIAP1/Actin in PBMC, median (range): 14 (0-28) % from baseline
cIAP-1 [1]; 900 mg, 1h, N=5
  cIAP1/Actin in PBMC, mean (SD): 11% (8) % from baseline
  cIAP1/Actin in PBMC, median (range): 9 (2-24) % from baseline
cIAP-1 [1]; 900 mg, 3h, N=4
  cIAP1/Actin in PBMC, mean (SD): 15% (23) % from baseline
  cIAP1/Actin in PBMC, median (range): 3 (3-49) % from baseline
cIAP-1 [1]; 900 mg, 6h, N=4
  cIAP1/Actin in PBMC, mean (SD): 14% (13) % from baseline
  cIAP1/Actin in PBMC, median (range): 11 (1-32) % from baseline
cIAP-1 [1]; 900 mg, 12h, N=2
  cIAP1/Actin in PBMC, mean (SD): 9% (2) % from baseline
  cIAP1/Actin in PBMC, median (range): 9 (7-10) % from baseline
cIAP-1 [1]; 900 mg, 24h, N=4
  cIAP1/Actin in PBMC, mean (SD): 11% (18) % from baseline
  cIAP1/Actin in PBMC, median (range): 3 (0-38) % from baseline
cIAP-1 [1]; 900 mg, 99h, N=4
  cIAP1/Actin in PBMC, mean (SD): 7% (6) % from baseline
  cIAP1/Actin in PBMC, median (range): 8 (0-14) % from baseline
cIAP-1 [1]; patients with detectable cIAP1, doses above 80 mg
  cIAP1 in PBMCs (Western blot): decreased; also recorded: rapid and persistent cIAP1 degradation
cIAP-1 [2]
  cIAP-1 degradation: rapidly induced degradation of cIAP-1
[3]; 31 patients
  Complete or partial response: No patient had a complete or partial response
[3]; five patients
  Duration of stable disease, range: 85 to 197 days
  Median duration of stable disease: 93 days
[3]; one patient with metastatic melanoma, 400 mg/day
  Reduction in target lesion dimensions: 11%
[4]
  Oral bioavailability: good
[5]
  Oral bioavailability: good
[6]
  Patients with detectable TNFα showing some increase postdose: four out of five
[7]
  Cell growth: inhibit cell growth
[8]
  Oral bioavailability: good
[9]
  Plasma level of M30: increased significantly
[10]
  No observable adverse event level (NOAEL): 1 mg/kg
[11]
  Effect on irradiation or chemotherapeutic agents: enhance the antitumoral effects

From paper PMC4365270 (Cancer Chemotherapy and Pharmacology, 2015)
